Assay results reported in patent publication US11267832B2, “Mn(II)-based sensors to detect zinc in vivo with MRI” (The Board of Regents of the University of Texas System, priority 2018, dated 2022).

How the values were obtained:
Male C57B16 mice [1] = test: Tissue ICP-AES biodistribution of Mn; type: in vivo
Experimental: Tissue ICP-AES: Biodistribution of 5 was measured in tissues 15 and 90 min after injection of (1) 0.07 mmol/kg 5 plus 2.2 mmol/kg D-glucose, (2) 0.07 mmol/kg 5 plus saline, and (3) 0.035 mmol/kg MnCl plus 2.2 mmol/kg D-glucose into male C57B16 mice. The tissue weights were recorded and digested in aqua regia for 24 hours, the digested tissue was heated to 120° C. until evaporated and re-suspended in 0.5 M HCl. For ICP-AES, Mn, Fe, and Zn concentrations were obtained by comparing to a known metal standard.

[2] = Clearance route and integrity by LC-MS of urine and bile; type: in vivo
Male C57B16 mice [3] = test: In vivo T1-weighted MRI of glucose-stimulated zinc secretion
Experimental: In Vivo MRI: Male C57B16 mice were imaged at 4.7 T and 9.4 T using Varian/Agilent scanners. Mice were anesthetized with 2-5% isofluorane/oxygen mixture and their body temperature was maintained at 37° C. using heated airflow. Two ge3d T1-weighted scans were obtained as a baseline (TE/TR=1.69/3.35 ms, Average=4, θ=20°). Mice then received 0.07 mmol/kg 5 i.v. plus 2.2 mmol/kg D-Glucose i.p. and sequential 3d T1-weighted scans were obtained for 90 minutes until clearance of the agent was evident. Images were analyzed using ImageJ, organs of interest were identified, and ROIs were measured and normalized to muscle ROIs within the same slice and time point. The change in MR signal intensity is reported as a percentage compared to pre-injection scans.

[4] = Relaxometry (T1 and T2 at 1.5 T); type: physicochemical; conditions: 37° C.
Experimental: Relaxometry: Varying concentrations of 5 (0-1 mM) were incubated with 2 mM ZnCl2, and 0.6 mM human serum albumin (HSA) at 37° C. T1 and T2 measurements were obtained at 1.5 T using a Bruker relaxometer. T1 was obtained by an inversion recovery sequence (IR, first pulse=10 ms, TR=10 s, TI=10-2500 ms), and T2 by a Carr-Prucell-Meiboom-Gill (CPMG, TE/TR=5/10000 ms, NE=700).

[5] = 0.035 mmol/kg i.v. plus 2.2 mmol/kg D-glucose i.p.

| Compound | Mn accumulation in the heart (Male C57B16 mice [1]; [5]) | excretion route (tissue biodistribution of Mn) (Male C57B16 mice [1]; [5]) | integrity during hepatobiliary clearance ([2]; LC-MS of bile) | integrity after renal filtration ([2]; LC-MS of urine) | Mn accumulation in the heart (Male C57B16 mice [1]; 0.07 mmol/kg i.v. plus 2.2 mmol/kg D-glucose i.p.) | Mn content in tissues (biodistribution) (Male C57B16 mice [1]; 15 minutes post-injection, 0.07 mmol/kg i.v. plus 2.2 mmol/kg D-glucose i.p.) | Mn content in tissues (biodistribution) (Male C57B16 mice [1]; 90 minutes post-injection, 0.07 mmol/kg i.v. plus 2.2 mmol/kg D-glucose i.p.) | MRI signal enhancement in organs (Male C57B16 mice [3]; 0.07 mmol/kg i.v. plus D-glucose 2.2 mmol/kg i.p., 4 minutes post injection, 9.4 T) | MRI signal enhancement in organs (Male C57B16 mice [3]; control, D-glucose not co-injected) | longitudinal relaxivity r1 ([4]; "off" configuration (no Zn(II)/HSA)) | longitudinal relaxivity r1 ([4]; "on" configuration bound to Zn^2+ and HSA (2 mM ZnCl2, 0.6 mM HSA)) |
| --- | --- | --- | --- | --- | --- | --- | --- | --- | --- | --- | --- |
| [Cl][Mn][Cl] [MnCl2, reference compound] | Accumulation in the heart | excreted renally and more overwhelmingly via the hepatobiliary system |  |  |  |  |  |  |  |  |  |
| Mn—N-(6-methyl)-(2-(bis(pyridin-2-ylmethyl)amino)ethyl)-nicotinamido-N,N′ N′-trans-1,2-cyclohexylenediamine-triacetate [Compound 5] |  |  | degraded during hepatobiliary clearance | excreted as an intact complex after renal filtration | no accumulation in the heart | found primarily in the kidneys, liver, pancreas, and prostate | greatly diminished in kidney and liver tissues but accumulated in the spleen and in the prostate | Enhancement in the pancreas, prostate, kidneys, and liver | marginal enhancement in the prostate and pancreas | 3.5 mM⁻¹ s⁻¹ | 14.1 mM⁻¹ s⁻¹ |
